Experimental data from US6932968B1, “Erythropoietin (EPO) peptides and antibodies directed against these” (Dade Behring Marburg GmbH, priority 1989, dated 2005).

Experiment: Immunization of rabbits with peptide-KLH conjugates, antibody detection by solid-phase ELISA / Western Blot
Type: in vivo
Details: high-titer epitope-specific anti-EPO antibodies
Text: In order to produce antibodies specific for EPO peptides, the peptide-KLH conjugates were emulsified with adjuvants and injected into rabbits in accordance with a 5-week immunization regimen. After this time the animals had produced specific antibodies and were bled.
A solid-phase ELISA was used to assay the sera for peptide or EPO specificity. The content of peptide-specific and EPO-specific antibodies in the antisera or in the antibody fractions which had been purified by affinity chromatography was determined in plastic microtiter plates, which were coated with purified EPO or with EPO peptides, using an enzyme-coupled anti-rabbit-Ig antiserum. In parallel with this, the antibodies were examined in a Western Blot to detect the specific EPO bands of 34–38 kDa.
Rabbits were immunized with […] of antigen per animal on each occasion for a period of 5 weeks. At the first immunization, the animals each received 0.4 mg of antigen in complete Freund's adjuvant (CFA) subcutaneously at 8 immunization sites in the vicinity of the lymph nodes. This was followed 2 weeks later by subcutaneous immunization with 0.8 mg of antigen/animal in CFA. After a further 2 weeks, the animals received intravenous administration of 0.1 mg of antigen in Aerosil on each of 5 consecutive days. 3 days later they were bled, and the individual antisera were obtained.
20 μg/ml EPO or EPO-specific peptides were coupled in carbonate buffer in plastic microtiter plates at 4° C. overnight. Before carrying out the assays, the plates were washed twice with PBS, saturated with PBS/0.5% BSA for 30 minutes and then washed three times with PBS.
The plates saturated with BSA were incubated with dilutions of the anti-EPO rabbit antisera or of the purified antibody fractions for 2 hours. After this time they were washed with PBS and incubated with anti-rabbit Ig anti-serum, which was coupled to alkaline phosphatase, for 2 hours. […] The reaction was stopped with 1 M NaOH after one hour, and the optical density at […] was measured. […]

Sequence | Immunogenicity of the EPO peptide
CDSRVLERYLLEAKEAE [P4/1, EPO peptide, amino-acid positions 7 to 23] | highly immunogenic
KRMEVGQQAVEV [P3/1, EPO peptide, amino-acid positions 52 to 63] | highly immunogenic
SSQPWEPLQLHV [P1/1, EPO peptide, amino-acid positions 84 to 95] | highly immunogenic
